Reference: the NIST ThermoML archive (doi:10.1016/j.jct.2009.06.016)
Values joined by “and” are separate entries in the source; they are usually repeats but may differ in a detail not shown here. Equal entries are not always repeated. ± gives the expanded uncertainty stated by the source.

Assay: xn = mol fraction of the nth substance listed
Details: 101 kPa, Liquid, Vibrating tube method

CCCOCC(C)O (configuration not stated) [1-propoxy-2-propanol] + O showed a mass density (283.15 K, x1 = 0.001639) of 999.31 ± 0.055 kg/m3, a mass density (283.15 K, x1 = 0.003265) of 999.009 ± 0.053 kg/m3 and a mass density (283.15 K, x1 = 0.01049) of 998.189 ± 0.052 kg/m3. It also gave a mass density (283.15 K, x1 = 0.01741) of 997.871 ± 0.052 kg/m3, a mass density (283.15 K, x1 = 0.02413) of 997.617 ± 0.053 kg/m3 and a mass density (283.15 K, x1 = 0.02492) of 997.584 ± 0.053 kg/m3. It also gave a mass density (283.15 K, x1 = 0.03341) of 997.009 ± 0.055 kg/m3, a mass density (283.15 K, x1 = 0.0411) of 995.626 ± 0.06 kg/m3 and a mass density (283.15 K, x1 = 0.04904) of 993.374 ± 0.065 kg/m3. It also gave a mass density (283.15 K, x1 = 0.05896) of 990.231 ± 0.067 kg/m3, a mass density (283.15 K, x1 = 0.06919) of 987.019 ± 0.069 kg/m3 and a mass density (283.15 K, x1 = 0.07722) of 984.1 ± 0.07 kg/m3. It also gave a mass density (283.15 K, x1 = 0.08896) of 980.8 ± 0.07 kg/m3, a mass density (283.15 K, x1 = 0.09833) of 977.885 ± 0.071 kg/m3 and a mass density (283.15 K, x1 = 0.1083) of 975.142 ± 0.072 kg/m3. It also gave a mass density (283.15 K, x1 = 0.1182) of 972.498 ± 0.072 kg/m3, a mass density (283.15 K, x1 = 0.1249) of 970.842 ± 0.073 kg/m3 and a mass density (283.15 K, x1 = 0.1283) of 969.927 ± 0.073 kg/m3. For the same compound, the mass density (283.15 K, x1 = 0.1365) was 967.946 ± 0.074 kg/m3, the mass density (283.15 K, x1 = 0.1475) was 965.216 ± 0.074 kg/m3 and the mass density (283.15 K, x1 = 0.1677) was 961.137 ± 0.076 kg/m3. It also gave a mass density (283.15 K, x1 = 0.1955) of 955.28 ± 0.079 kg/m3, a mass density (283.15 K, x1 = 0.2281) of 950.34 ± 0.082 kg/m3 and a mass density (283.15 K, x1 = 0.2743) of 943.61 ± 0.087 kg/m3. It also gave a mass density (283.15 K, x1 = 0.3208) of 937.609 ± 0.092 kg/m3, a mass density (283.15 K, x1 = 0.3483) of 934.321 ± 0.095 kg/m3 and a mass density (283.15 K, x1 = 0.3738) of 931.91 ± 0.098 kg/m3. For the same compound, the mass density (283.15 K, x1 = 0.4214) was 927.214 ± 0.1 kg/m3, the mass density (283.15 K, x1 = 0.4787) was 922.45 ± 0.11 kg/m3 and the mass density (283.15 K, x1 = 0.5257) was 918.715 ± 0.12 kg/m3. The mass density (283.15 K, x1 = 0.548) was 916.854 ± 0.13 kg/m3, the mass density (283.15 K, x1 = 0.5771) was 915.29 ± 0.13 kg/m3 and the mass density (283.15 K, x1 = 0.5977) was 913.887 ± 0.14 kg/m3. It also gave a mass density (283.15 K, x1 = 0.6247) of 912.186 ± 0.14 kg/m3, a mass density (283.15 K, x1 = 0.6385) of 911.37 ± 0.14 kg/m3 and a mass density (283.15 K, x1 = 0.672) of 909.401 ± 0.15 kg/m3. For the same compound, the mass density (283.15 K, x1 = 0.6793) was 909.018 ± 0.15 kg/m3, the mass density (283.15 K, x1 = 0.7192) was 906.894 ± 0.16 kg/m3 and the mass density (283.15 K, x1 = 0.7272) was 906.317 ± 0.16 kg/m3. For the same compound, the mass density (283.15 K, x1 = 0.7448) was 905.495 ± 0.17 kg/m3, the mass density (283.15 K, x1 = 0.7589) was 904.809 ± 0.17 kg/m3 and the mass density (283.15 K, x1 = 0.7682) was 903.977 ± 0.17 kg/m3. For the same compound, the mass density (283.15 K, x1 = 0.7858) was 903.51 ± 0.18 kg/m3, the mass density (283.15 K, x1 = 0.7981) was 902.909 ± 0.18 kg/m3 and the mass density (283.15 K, x1 = 0.8224) was 901.51 ± 0.19 kg/m3. For the same compound, the mass density (283.15 K, x1 = 0.8398) was 901.029 ± 0.19 kg/m3, the mass density (283.15 K, x1 = 0.8588) was 900.07 ± 0.2 kg/m3 and the mass density (283.15 K, x1 = 0.8792) was 898.865 ± 0.2 kg/m3. For the same compound, the mass density (283.15 K, x1 = 0.8796) was 899.334 ± 0.2 kg/m3, the mass density (283.15 K, x1 = 0.8993) was 898.371 ± 0.21 kg/m3 and the mass density (283.15 K, x1 = 0.9197) was 897.715 ± 0.21 kg/m3 and 897.195 ± 0.21 kg/m3. For the same compound, the mass density (283.15 K, x1 = 0.9388) was 896.775 ± 0.22 kg/m3, the mass density (283.15 K, x1 = 0.9486) was 896.411 ± 0.22 kg/m3 and the mass density (283.15 K, x1 = 0.9609) was 895.933 ± 0.22 kg/m3. For the same compound, the mass density (283.15 K, x1 = 0.9628) was 896.008 ± 0.22 kg/m3, the mass density (283.15 K, x1 = 0.9716) was 895.539 ± 0.23 kg/m3 and the mass density (283.15 K, x1 = 0.9798) was 895.261 ± 0.23 kg/m3. It also gave a mass density (283.15 K, x1 = 0.9818) of 895.15 ± 0.23 kg/m3, a mass density (283.15 K, x1 = 0.9919) of 894.781 ± 0.23 kg/m3 and a mass density (283.15 K, x1 = 1) of 894.462 ± 0.23 kg/m3. For the same compound, the mass density (288.15 K, x1 = 0.001639) was 998.703 ± 0.056 kg/m3, the mass density (288.15 K, x1 = 0.003265) was 998.36 ± 0.053 kg/m3 and the mass density (288.15 K, x1 = 0.01049) was 997.309 ± 0.053 kg/m3. The mass density (288.15 K, x1 = 0.01741) was 996.708 ± 0.053 kg/m3, the mass density (288.15 K, x1 = 0.02413) was 996.172 ± 0.054 kg/m3 and the mass density (288.15 K, x1 = 0.02492) was 996.099 ± 0.054 kg/m3. It also gave a mass density (288.15 K, x1 = 0.03341) of 994.916 ± 0.058 kg/m3, a mass density (288.15 K, x1 = 0.0411) of 993.032 ± 0.063 kg/m3 and a mass density (288.15 K, x1 = 0.04904) of 990.531 ± 0.067 kg/m3. The mass density (288.15 K, x1 = 0.05896) was 987.111 ± 0.069 kg/m3, the mass density (288.15 K, x1 = 0.06919) was 983.629 ± 0.071 kg/m3 and the mass density (288.15 K, x1 = 0.07722) was 980.908 ± 0.07 kg/m3. It also gave a mass density (288.15 K, x1 = 0.08896) of 977.203 ± 0.072 kg/m3, a mass density (288.15 K, x1 = 0.09833) of 974.328 ± 0.072 kg/m3 and a mass density (288.15 K, x1 = 0.1083) of 971.439 ± 0.073 kg/m3. The mass density (288.15 K, x1 = 0.1182) was 968.762 ± 0.074 kg/m3 and the mass density (288.15 K, x1 = 0.1249) was 967.03 ± 0.074 kg/m3.
